Reference: patent US20090124633A1, “N-OXIDES OF HETEROCYCLIC SUBSTITUTED BISARYLUREAS FOR TREATING KINASE-MEDIATED DISEASES” (priority 2006, published 2009)

Columns and labels:
[1] = Stability against oxygen in air; type: physicochemical; settings: dissolved either in DMSO/water or in acetic acid/water, stirred on air for more than a week
From the text: Stability Against Oxygen in Air
The compounds • 4-{4-[3-(2-[1,2,4]Triazol-1-yl-5-trifluoromethyl-phenyl)-ureido]-phenoxy}-pyridine-2-carboxylic acid methylamide, • 4-{4-[3-(2-[1,2,3]Triazol-1-yl-5-trifluoromethyl-phenyl)-ureido]-phenoxy}-pyridine-2-carboxylic acid methylamide, 525946 • 4-{4-[3-(2-Imidazol-1-yl-5-trifluoromethyl-phenyl)-ureido]-phenoxy}-pyridine-2-carboxylic acid methylamide, and • 1-[4-(Pyridin-4-yloxy)-phenyl]-3-(2-[1,2,4]triazol-1-yl-5-trifluoromethyl-phenyl)-urea, respectively, were dissolved either in DMSO/water or in acetic acid/water and stirred on air for more than a week.

Tie-2 = biological target: T1, Tie-2 (Homo sapiens, UniProt Q02763); experiment: flashplate kinase assay, phosphorylation of poly-Glu-Tyr (4:1) by Tie-2; type: biochemical; settings: read-out: TIE2 [IC50]
T1 construct: The catalytic sections of the corresponding tyrosine kinases are preferably expressed as GST fusion proteins; GST
T1 sequence (Q02763 824-1096 limits assumed): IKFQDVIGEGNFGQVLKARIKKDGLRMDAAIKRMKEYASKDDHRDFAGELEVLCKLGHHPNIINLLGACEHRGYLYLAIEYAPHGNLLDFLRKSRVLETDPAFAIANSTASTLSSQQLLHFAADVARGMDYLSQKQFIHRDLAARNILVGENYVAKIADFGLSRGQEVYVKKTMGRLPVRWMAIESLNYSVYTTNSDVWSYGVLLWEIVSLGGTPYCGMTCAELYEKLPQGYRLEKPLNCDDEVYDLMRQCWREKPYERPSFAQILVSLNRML
Protocol: (§1) The biological activity of N-oxide compounds according the invention are tested in one or more standard kinase assay systems as described in the art. Preferably, the compounds according the invention are tested in a kinase assay as described below, or in analogous manner thereof:
(§2) In this assay the inhibitory action of the compounds according to the invention on the phosphorylation of the substrates Biotin-poly-Glu-Tyr (4:1) by VGFR2 (KDR) or poly-Glu-Tyr (4:1) by Tie-2, respectively, is tested. In the wells of a streptavidin-coated microtiter flashplate, VEGFR2, or a microtiter flashplate, Tie-2, respectively, phosphorylate the substrates in the presence of ATPyS and small amounts of radioactive ^33P-ATP. Phosphorylated substrates bind during enzymatic reaction to the walls of the wells. The phosphorylation reaction is stopped by addition of a stopping reagent, the liquid is removed from the wells and the wells are rinsed. The amount of radioactivity incorporated into the substrate bound to the well is then measured. The reaction is done in presence of different concentrations of the compound and in absence of the compound. The inhibitory action of the compounds according to the invention is determined on the basis of the ratio of radioactivity found in the presence of a compound according to the invention in comparison to the radioactivity found in the enzymatic reaction in the absence of a compound according to the invention. The catalytic sections of the corresponding tyrosine kinases are preferably expressed as GST fusion proteins.
(§3) 100 μL of the compound to be tested are applied to a well (starting concentration: 1E-3 mol/L in 100% DMSO); the dilution for the determination of the IC 50 values is performed on a BiomekFX robot in 10 steps (range of concentration is 1E-5 to 1E-10 mol/L in the assay, i.e. 1E-5, 1E-6, 3E-7, 1E-7, 3E-8, 1E-8, 3E-9, 1E-9, 3E-10, 1E-10 mol/L).

VGFR2 (KDR) = biological target: T2, VGFR2 (KDR) (Homo sapiens, UniProt P35968); experiment: flashplate kinase assay, phosphorylation of Biotin-poly-Glu-Tyr (4:1) by VGFR2 (KDR); type: biochemical
T2 construct: The catalytic sections of the corresponding tyrosine kinases are preferably expressed as GST fusion proteins; GST
T2 sequence (P35968 834-1162 limits assumed): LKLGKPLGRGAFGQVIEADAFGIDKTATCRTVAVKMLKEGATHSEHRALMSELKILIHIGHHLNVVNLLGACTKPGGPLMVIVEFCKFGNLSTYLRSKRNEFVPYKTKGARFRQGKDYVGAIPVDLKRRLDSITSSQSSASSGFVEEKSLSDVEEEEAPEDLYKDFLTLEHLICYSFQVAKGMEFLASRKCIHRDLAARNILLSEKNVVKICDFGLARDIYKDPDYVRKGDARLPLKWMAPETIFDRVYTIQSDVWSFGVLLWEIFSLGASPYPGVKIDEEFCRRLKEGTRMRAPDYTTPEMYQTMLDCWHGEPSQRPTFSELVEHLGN
Protocol: as §1, §2, §3

Structure (SMILES)	N-oxide formation on air [1]	IC50 (Tie-2) [nM]	IC50 (VGFR2 (KDR)) [nM]
O=C(Nc1ccc(Oc2ccncc2)cc1)Nc1cc(C(F)(F)F)ccc1-n1cncn1 [1-[4-(Pyridin-4-yloxy)-phenyl]-3-(2-[1,2,4]triazol-1-yl-5-trifluoromethyl-phenyl)-urea]	No N-oxide formation could be detected	–	–
CNC(=O)c1cc(Oc2ccc(NC(=O)Nc3cc(C(F)(F)F)ccc3-n3ccnc3)cc2)ccn1 [4-{4-[3-(2-Imidazol-1-yl-5-trifluoromethyl-phenyl)-ureido]-phenoxy}-pyridine-2-carboxylic acid methylamide]	No N-oxide formation could be detected	–	–
CNC(=O)c1cc(Oc2ccc(NC(=O)Nc3cc(C(F)(F)F)ccc3-n3ccnn3)cc2)ccn1 [4-{4-[3-(2-[1,2,3]Triazol-1-yl-5-trifluoromethyl-phenyl)-ureido]-phenoxy}-pyridine-2-carboxylic acid methylamide]	No N-oxide formation could be detected	–	–
CNC(=O)c1cc(Oc2ccc(NC(=O)Nc3cc(C(F)(F)F)ccc3-n3cncn3)cc2)ccn1 [4-{4-[3-(2-[1,2,4]Triazol-1-yl-5-trifluoromethyl-phenyl)-ureido]-phenoxy}-pyridine-2-carboxylic acid methylamide]	No N-oxide formation could be detected	–	–
CNC(=O)c1cc(Oc2ccc(NC(=O)Nc3cc(C(F)(F)F)ccc3-n3cncn3)cc2)cc[n+]1[O-] [Compound 11, 1-Oxy-4-{4-[3-(2-[1,2,4]triazol-1-yl-5-trifluoromethyl-phenyl)-ureido]-phenoxy}-pyridine-2-carboxylic acid methylamide]	–	52	14
CNC(=O)c1cc(Oc2ccc(NC(=O)Nc3cc(C(F)(F)F)ccc3-n3ccnn3)cc2)cc[n+]1[O-] [Compound 12, 1-Oxy-4-{4-[3-(2-[1,2,3]triazol-1-yl-5-trifluoromethyl-phenyl)-ureido]-phenoxy}-pyridine-2-carboxylic acid methylamide]	–	30	49
CNC(=O)c1cc(Oc2ccc(NC(=O)Nc3cc(C(F)(F)F)ccc3-n3ccnc3)cc2)cc[n+]1[O-] [Compound 13, 4-{4-[3-(2-Imidazol-1-yl-5-trifluoromethyl-phenyl)-ureido]-phenoxy}-1-oxy-pyridine-2-carboxylic acid methylamide]	–	49	56
O=C(Nc1ccc(Oc2cc[n+]([O-])cc2)cc1)Nc1cc(C(F)(F)F)ccc1-n1cncn1 [Compound 14, 1-[4-(1-Oxy-pyridin-4-yloxy)-phenyl]-3-(2-[1,2,4]triazol-1-yl-5-trifluoromethyl-phenyl)-urea]	–	740	1200
